In patent US9834558B2, “Substituted bridged urea analogs as sirtuin modulators” (GLAXOSMITHKLINE LLC, priority 2013, dated 2017):
Like-named read-outs stand apart in the source and are kept apart here.

Target: T1, SIRT1 (Homo sapiens, UniProt Q96EB6)
T1 sequence (Q96EB6 1-747): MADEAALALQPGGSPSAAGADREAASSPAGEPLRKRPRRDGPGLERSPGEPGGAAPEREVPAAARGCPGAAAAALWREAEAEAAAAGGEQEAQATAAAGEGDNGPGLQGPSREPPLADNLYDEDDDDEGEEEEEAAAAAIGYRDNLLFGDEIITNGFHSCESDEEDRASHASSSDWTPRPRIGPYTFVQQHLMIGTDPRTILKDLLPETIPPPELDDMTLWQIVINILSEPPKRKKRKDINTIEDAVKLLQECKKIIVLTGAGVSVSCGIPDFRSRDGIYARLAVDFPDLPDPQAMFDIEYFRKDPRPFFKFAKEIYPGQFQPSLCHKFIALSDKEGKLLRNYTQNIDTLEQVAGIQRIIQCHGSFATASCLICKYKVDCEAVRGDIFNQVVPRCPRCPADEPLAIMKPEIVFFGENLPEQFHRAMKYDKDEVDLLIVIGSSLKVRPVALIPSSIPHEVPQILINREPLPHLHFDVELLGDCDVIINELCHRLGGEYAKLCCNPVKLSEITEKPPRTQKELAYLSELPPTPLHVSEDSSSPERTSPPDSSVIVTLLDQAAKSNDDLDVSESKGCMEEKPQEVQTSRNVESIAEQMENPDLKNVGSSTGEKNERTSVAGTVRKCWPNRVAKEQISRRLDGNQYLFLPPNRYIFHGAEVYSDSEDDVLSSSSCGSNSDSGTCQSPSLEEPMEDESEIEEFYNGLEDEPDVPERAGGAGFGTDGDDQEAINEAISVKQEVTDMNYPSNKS
Experiment: Trp mass spectrometry assay of SIRT1 activation
Assay type: biochemical
Details: for TRP Activity (EC1.5): EC1.5 = concentration that results in 150% activation of SIRT1
Text: Mass spectrometry based assays were used to identify modulators of SIRT1 activity. […] The peptide was labeled with the fluorophore STMR (excitation 540 nm/emission 580 nm) at the C-terminus. The sequence of the peptide substrate was based on p53 with several modifications. In addition, the methionine residue naturally present in the sequence was replaced with the norleucine because the methionine may be susceptible to oxidation during synthesis and purification. The Trp based assay utilized a peptide having an amino acid residues as follows: Ac-R-H-K-K(Ac)-W-NH2 (SEQ ID NO: 2).
The Trp mass spectrometry assay was conducted as follows. 0.5 μM peptide substrate and 120 μM βNAD^+ were incubated with 10 nM SIRT1 for 25 minutes at 25° C. in a reaction buffer (50 mM HEPES pH 7.5, […], 1 mM DTT, 0.05% BSA). The SIRT1 protein was obtained by cloning the SirT1 gene into a T7-promoter containing vector, which was then expressed in BL21(DE3) bacterial cells and purified as described in further detail below. Test compound was added at varying concentrations to this reaction mixture and the resulting reactions were monitored. After the 25 minute incubation with SIRT1, 10 μL of 10% formic acid was added to stop the reaction. The resulting reactions were sealed and frozen for later mass spec analysis. The relative SIRT1 activity was then determined by measuring the amount of O-acetyl-ADP-ribose (OAADPR) formed (or, alternatively, the amount of deacetylated Trp peptide generated) by the NAD-dependent sirtuin deacetylation reaction in the presence of varying concentrations of the test compound versus control reactions lacking the test compound. The degree to which the test agent activated deacetylation by SIRT1 was expressed as EC1.5 (i.e., the concentration of compound required to increase SIRT1 activity by 50% over the control lacking test compound), and Percent Maximum Activation (i.e., the maximum activity relative to control (100%) obtained for the test compound).
This time point was the same as that used for test compounds and, within the linear range, the endpoint represents a change in velocity.
For the above assay, SIRT1 protein was expressed and purified as follows. The SirT1 gene was cloned into a T7-promoter containing vector and transformed into BL21(DE3). The protein was expressed by induction with 1 mM IPTG as an N-terminal His-tag fusion protein at 18° C. overnight and harvested at 30,000×g. Cells were lysed with lysozyme in lysis buffer (50 mM Tris-HCl, 2 mM Tris[2-carboxyethyl]phosphine (TCEP), 10 μM ZnCl2, 200 mM NaCl) and further treated with sonication for 10 min for complete lysis. The protein was purified over a Ni-NTA column (Amersham) and fractions containing pure protein were pooled, concentrated and run over a sizing column (Sephadex S200 26/60 global). The peak containing soluble protein was collected and run on an Ion-exchange column (MonoQ). Gradient elution (200 mM-500 mM NaCl) yielded pure protein. This protein was concentrated and dialyzed against dialysis buffer (20 mM Tris-HCl, 2 mM TCEP) overnight. The protein was aliquoted and frozen at −80° C. until further use.
“NT” means not tested; “ND” means not determinable.

[1] = concentration giving 150% activation of SIRT1, Trp peptide substrate
[2] = Trp peptide assay, maximum activity relative to control (100%), read-out: TRP MAX RESP (percent maximum fold activation)
[3] = Trp mass spectrometry assay, EC1.5 = concentration of test compound that results in 150% activation of SIRT1
[4] = Trp mass spectrometry assay, concentration of test compound giving 150% activation of SIRT1

Row | Structure (SMILES) | TRP Activity (EC1.5) (Trp peptide assay) | Emax [2] [%] | Tryp AVG EC1.5 (μM) [3] | other results
1 | O=C(Nc1cccc(-c2cnco2)c1)N1c2nc(N3CCCN(CC(F)(F)F)CC3)ccc2N2CC[C@H]1C2 [Example 741] | – | – | – | Tryp AVG EC1.5 (μM) [1]: A (A (EC1.5<1 μM))
2 | C[C@H]1CNCCN1c1ccc2c(n1)N(C(=O)Nc1cnccn1)[C@H]1CCN2C1 [(9S)-5-[(2S)-2-methylpiperazin-1-yl]-N-(pyrazin-2-yl)-1,6,8-triazatricyclo[7.2.1.0 {2,7}]dodeca-2,4,6-triene-8-carboxamide] | C (C (EC1.5>25 μM)) | < 150 | – | –
3 | N#Cc1ccccc1-c1ccc2c(n1)N(C(=O)Nc1cccnn1)[C@H]1CCCN2C1 [Example 426] | – | – | B (B (EC1.5 1-25 μM)) | –
4 | O=C(NCCc1ccccn1)N1c2nc(-c3cccc(C(F)(F)F)c3)ccc2N2CC[C@H]1C2 [Example 614] | – | – | B (B (EC1.5 1-25 μM)) | –
5 | O=C(Nc1cccc(-c2cnco2)c1)N1c2nc(-c3cccc(C(F)(F)F)c3)ccc2N2CC[C@H]1C2 [68 (1)] | – | – | – | Tryp AVG EC1.5 (μM) (Trp peptide substrate, concentration giving 150% activation of SIRT1): A (A (EC1.5<1 μM))
6 | CC(C)n1cc(-c2ccc3c(n2)N(C(=O)Nc2cnccn2)[C@H]2CCN3C2)cn1 [(9S)-5-[1-(propan-2-yl)-1H-pyrazol-4-yl]-N-(pyrazin-2-yl)-1,6,8-triazatricyclo[7.2.1.0 {2,7}]dodeca-2,4,6-triene-8-carboxamide] | A (A (EC1.5<1 μM)) | > 150 | – | –
7 | NCCCc1cc(NC(=O)N2c3nc(-c4cccc(C(F)(F)F)c4)ccc3N3CCC[C@H]2C3)cc(-c2cnco2)c1 [Example 770] | – | – | – | Tryp AVG EC1.5 (μM) [1]: A (A (EC1.5<1 μM)); Emax (percent maximum fold activation of SIRT1, Trp peptide substrate, read-out: Tryp % Fold Act): > 150%
8 | O=C(Nc1ccccn1)N1c2nc(-c3cccc(C(F)(F)F)c3)ccc2N2CCC[C@H]1C2 [Example 820] | – | – | – | Tryp AVG EC1.5 (μM) [1]: A (A (EC1.5<1 μM))
9 | O=C(Nc1cccnn1)N1c2nc(-c3cccc(N4CCOCC4)c3)ccc2N2CCC[C@H]1C2 [Example 539] | – | – | B (B (EC1.5 1-25 μM)) | –
10 | Cc1ccc(-c2ccc3c(n2)N(C(=O)Nc2cncc(C)n2)[C@H]2CCN3C2)cn1 [(9S)-N-(6-methylpyrazin-2-yl)-5-(6-methylpyridin-3-yl)-1,6,8-triazatricyclo[7.2.1.0 {2,7}]dodeca-2,4,6-triene-8-carboxamide] | B (B (EC1.5 1-25 μM)) | > 150 | – | –
11 | Cc1ncc(-c2ccc3c(n2)N(C(=O)Nc2cnccn2)[C@H]2CCN3C2)s1 [(9S)-5-(2-methyl-1,3-thiazol-5-yl)-N-(pyrazin-2-yl)-1,6,8-triazatricyclo[7.2.1.0 {2,7}]dodeca-2(7),3,5-triene-8-carboxamide] | B (B (EC1.5 1-25 μM)) | > 150 | – | –
12 | O=C(NC(CO)C(F)(F)F)c1ccc2c(n1)N(C(=O)Nc1ccccn1)[C@H]1CCN2C1 (stereo partly drawn) [(9S)-8-N-(pyridin-2-yl)-5-N-(1,1,1-trifluoro-3-hydroxypropan-2-yl)-1,6,8-triazatricyclo[7.2.1.0^{2,7}]dodeca-2(7),3,5-triene-5,8-dicarboxamide] | A (A (EC1.5<1 μM)) | > 150 | – | –
13 | CN(C)c1ccc(-c2ccc3c(n2)N(C(=O)Nc2ccccn2)[C@H]2CCN3C2)cn1 [Example 345] | – | – | – | Tryp AVG EC1.5 (μM) [4]: B (B (EC1.5 1-25 μM))
14 | Cc1c(-c2ccc3c(n2)N(C(=O)Nc2cccnc2)[C@H]2CCN3C2)cnn1C [Example 489] | – | – | B (B (EC1.5 1-25 μM)) | –
15 | COc1cc(NC(=O)N2c3nc(-c4cncc(C(F)(F)F)c4)ccc3N3CCC[C@H]2C3)ncn1 [Example 394] | – | – | – | Tryp AVG EC1.5 (μM) [4]: A (A (EC1.5<1 μM))
16 | CC(C)(C)OC(=O)NCCCc1ccc(NC(=O)N2c3nc(-c4cccc(C(F)(F)F)c4)ccc3N3CCC[C@H]2C3)cc1-c1cnco1 [Example 752] | – | – | – | Tryp AVG EC1.5 (μM) [1]: A (A (EC1.5<1 μM))
17 | O=C(Nc1cccc(-c2cnco2)n1)N1c2nc(-c3cccc(C(F)(F)F)c3)ccc2N2CCC[C@H]1C2 [Example 590] | – | – | A (A (EC1.5<1 μM)) | –
18 | COc1cc(NC(=O)N2c3nc(-c4ccnc(N5CC[C@H](F)C5)c4)ccc3N3CC[C@H]2C3)ncn1 [Example 437] | – | – | B (B (EC1.5 1-25 μM)) | –
19 | O=C(Nc1cc(-c2cnco2)ccn1)N1c2nc(-c3cccc(C(F)(F)F)c3)ccc2N2CCC[C@H]1C2 [Example 591] | – | – | A (A (EC1.5<1 μM)) | –
20 | O=C(Nc1cnccn1)N1c2nc(N3CCO[C@H](C(F)(F)F)C3)ccc2N2CC[C@H]1C2 [drawing 1227, (9S)-N-(pyrazin-2-yl)-5-[(2S)-2-(trifluoromethyl)morpholin-4-yl]-1,6,8-triazatricyclo[7.2.1.0 {2,7}]dodeca-2(7),3,5-triene-8-carboxamide] | A (A (EC1.5<1 μM)) | – | – | TRP MAX RESP (percent maximum fold activation) (Trp peptide assay, maximum activity relative to control (100%)): A (A (Fold activation ≧150%))
21 | O=C(Nc1ccccn1)N1c2nc(N3CCC[C@H]3C(F)(F)F)ccc2N2CCC[C@H]1C2 [(9S)-N-(pyridin-2-yl)-5-[(2S)-2-(trifluoromethyl)pyrrolidin-1-yl]-1,6,8-triazatricyclo[7.3.1.0 {2,7}]trideca-2(7),3,5-triene-8-carboxamide] | B (B (EC1.5 1-25 μM)) | > 150 | – | –
22 | Cc1cc(-c2ccc3c(n2)N(C(=O)NC2CCC2)[C@H]2CCN3C2)ccn1 [(9S)-N-cyclobutyl-5-(2-methylpyridin-4-yl)-1,6,8-triazatricyclo[7.2.1.0 {2,7}]dodeca-2(7),3,5-triene-8-carboxamide] | B (B (EC1.5 1-25 μM)) | > 150 | – | –
23 | O=C(Nc1cnccn1)N1c2nc(-c3cccc(C(F)(F)F)c3)ccc2N2CCC1CC2 [Example 472] | – | – | A (A (EC1.5<1 μM)) | –
24 | Cc1cc(-c2ccc3c(n2)N(C(=O)Nc2c[nH]nn2)[C@H]2CCN3C2)ccn1 [(9S)-5-(2-methylpyridin-4-yl)-N-(1H-1,2,3-triazol-4-yl)-1,6,8-triazatricyclo[7.2.1.0 {2,7}]dodeca-2(7),3,5-triene-8-carboxamide] | B (B (EC1.5 1-25 μM)) | > 150 | – | –
25 | Cn1cc(-c2ccc3c(n2)N(C(=O)Nc2cccnc2)[C@H]2CCN3C2)cn1 [Example 395] | – | – | – | Tryp AVG EC1.5 (μM) [4]: B (B (EC1.5 1-25 μM))
26 | N=C(N)NCc1ccc(NC(=O)N2c3nc(-c4cccc(C(F)(F)F)c4)ccc3N3CCC[C@H]2C3)cc1 [Example 777] | – | – | – | Tryp AVG EC1.5 (μM) [1]: A (A (EC1.5<1 μM))
